SMILES strings stand for the structures. In brackets after ≈: the same amount, converted by molar mass.

For this assay, the system named is Pseudomonas aeruginosa E2. Kind of assay: MIC against Pseudomonas aeruginosa E2. It is filed as cell-based.
On to `CCOC(=O)Oc1ccc([C@@H](NC(=O)N2CCN(CC)C(=O)C2=O)C(=O)NC2C(=O)N3C(C(=O)O)=C(CSc4nnc(C)s4)CS[C@H]23)cc1` (single isomer, unassigned) [Example 11, 7-[D(-)-α-(4-ethyl-2,3-dioxopiperazin-1-yl-carbonylamino)-p-ethoxycarbonyloxyphenylacetamido]-3-(5-methyl-1,3,4-thiadiazol-2-yl-thiomethyl)-3-cephem-4-carboxylic acid], for which inhibition of growth (MIC) required 12.5 µg/mL (≈ 17 µM). The result for `CCN1CCN(C(=O)N[C@@H](C(=O)NC2C(=O)N3C(C(=O)O)=C(CSc4nncs4)CS[C@H]23)c2ccc(OC(=O)CC(C)=O)cc2)C(=O)C1=O` (single isomer, unassigned) [Example 9, 7-[D(-)-α-(4-ethyl-2,3-dioxopiperazin-1-yl-carbonylamino)-p-acetoacetoxyphenylacetamido]-3-(1,3,4-thiadiazol-2-yl-thiomethyl)-3-cephem-4-carboxylic acid] reads 6.25 µg/mL (≈ 8.54 µM); that for `CCN1CCN(C(=O)N[C@@H](C(=O)NC2C(=O)N3C(C(=O)O)=C(CSc4nncs4)CS[C@H]23)c2ccc(OC(=O)OCC(C)C)cc2)C(=O)C1=O` (single isomer, unassigned) [Example 17, 7-[D(-)-α-(4-ethyl-2,3-dioxopiperazin-1-yl-carbonylamino)-p-iso-butoxycarbonyloxyphenylacetamido]-3-(1,3,4-thiadiazol-2-yl-thiomethyl)-3-cephem-4-carboxylic acid], 12.5 µg/mL (≈ 16.7 µM); that for `CCOC(=O)Oc1ccc([C@@H](NC(=O)N2CCN(CC)C(=O)C2=O)C(=O)NC2C(=O)N3C(C(=O)O)=C(CSc4nnc(C)s4)CS[C@H]23)cc1Cl` (single isomer, unassigned) [Example 12, 7-[D(-)-α-(4-ethyl-2,3-dioxopiperazin-1-yl-carbonylamino)-m-chloro-p-ethoxycarbonyloxyphenylacetamido]-3-(5-methyl-1,3,4-thiadiazol-2-yl-thiomethyl)-3-cephem-4-carboxylic acid], 12.5 µg/mL (≈ 16.3 µM).

Regarding `CCN1CCN(C(=O)N[C@@H](C(=O)NC2C(=O)N3C(C(=O)O)=C(CSc4nncs4)CS[C@H]23)c2ccc(OC(=O)CC(C)=O)c(Cl)c2)C(=O)C1=O` (single isomer, unassigned) [Example 10, 7-[D(-)-α-(4-ethyl-2,3-dioxopiperazin-1-yl-carbonylamino)-m-chloro-p-acetoacetoxyphenylacetamido]-3-(1,3,4-thiadiazol-2-yl-thiomethyl)-3-cephem-4-carboxylic acid], the MIC – broadly, the least concentration at which growth counts as inhibited – was 3.13 µg/mL (≈ 4.08 µM).
